Where two headings read alike, the source gives them in different places.
Assays:
SK-MEL-25 = experiment: Melanoma cytotoxicity assay (resazurin); type: cell-based
Procedure, shortened: (§1)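 ~4000 cells/well, 24 h attach, 37° C/5% CO2; cpd triplicate, 24 h; resazurin 6 h; fluor 544/590 nm. % viability vs DMSO after media-blank subtraction; IC50 from dilution series, sigmoidal fit.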

SK-MEL-28 = experiment: Melanoma cytotoxicity assay (resazurin); type: cell-based
Procedure, shortened: as §1

LOX IMVI = experiment: Melanoma cytotoxicity assay (resazurin); type: cell-based
Procedure, shortened: as §1

SK-MEL-5 = experiment: Melanoma cytotoxicity assay (resazurin); type: cell-based
Procedure, shortened: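 Cells are plated at roughly 4000 per well and allowed 24 h before compound addition in triplicate. After a further 24 h, resazurin is added for 6 h and fluorescence measured; percent viability is normalized to DMSO-treated wells.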

HCT-15 (Colon Cancer) = experiment: NCI 60 one dose screen; type: cell-based, human
gliosarcoma (SF-539) = experiment: NCI 60 five dose screen
[1] = tested on: 60 different human tumor cell lines; experiment: cells
MALME-3M = experiment: Melanoma cytotoxicity assay (resazurin); type: cell-based; details: human, 24 h
Procedure, shortened: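 MALME-3M cells (~4000/well) seeded 24 h, then exposed to compound in triplicate for 24 h at 37° C, 5% CO2. Resazurin added for 6 h, fluorescence read at 544/590 nm; background-subtracted viability normalised to DMSO wells. IC50 from sigmoidal fit of serial dilutions.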

Molecule: (1S,2R,13R,14S,18S)-7-(3-fluoroanilino)-2,18-dimethyl-6-thia-8-azapentacyclo[11.7.0.02,10.05,9.014,18]icosa-5(9),7,10-trien-17-one [IIa.8]
- SK-MEL-25 (% inhibition) (SK-MEL-25; SK-MEL-25 melanoma cells, 24 hours with compound, resazurin, concentration not given): 88%
- IC50 (SK-MEL-25; SK-MEL-25 melanoma cells, 24 hours, resazurin, read-out: SK-MEL-25 (IC50)): 10 µM
- SK-MEL-28 (% inhibition) (SK-MEL-28; SK-MEL-28 melanoma cells, 24 hours with compound, resazurin, concentration not given): 90%
- IC50 (SK-MEL-28; SK-MEL-28 melanoma cells, 24 hours, resazurin): > 20 µM
- LOX-IMVI (% inhibition) (LOX IMVI; LOX IMVI melanoma cells, 24 hours with compound, resazurin, concentration not given): 79%
- IC50 (LOX IMVI; LOX IMVI melanoma cells, 24 hours, resazurin): > 20 µM
- SK-MEL-5 (% inhibition) (SK-MEL-5; SK-MEL-5 melanoma cells, 24 hours with compound, resazurin, concentration not given): 84%
- Growth Percent (HCT-15 (Colon Cancer)): 6.88%
- GI50 (gliosarcoma (SF-539); SF-539 (CNS Cancer), five dose): 1.34 µM
- TGI (gliosarcoma (SF-539); SF-539 (CNS Cancer), five dose): 2.94E−6
- GI50 (gliosarcoma (SF-539); gliosarcoma SF-539): 1.34 µM
- CC50 (gliosarcoma (SF-539); read-out: LC50, SF-539 (CNS Cancer), five dose): 6.45 µM

Molecule: C[C@]12CC[C@H]3[C@@H](CC=C4c5sc(Nc6ccccc6)nc5CC[C@@]43C)[C@@H]1CC[C@@H]2O [IIIa.10, (1S,2R,13R,14S,17S,18S)-7-anilino-2,18-dimethyl-8-thia-6-azapentacyclo[11.7.0.02,10.05,9.014,18]icosa-5(9),6,10-trien-17-ol]
- GI50 ([1]; 60 cell): 2.37 µM
- CC50 ([1]; 60 cell, read-out: LC50): 38.4 µM
- GI50 ([1]; 786-0): 1.22 µM
- CC50 ([1]; 786-0, read-out: LC50): 8.87 µM
- GI50 ([1]; A498): 2.16 µM
- CC50 ([1]; A498, read-out: LC50): 20.7 µM
- GI50 ([1]; A549): 2.41 µM
- CC50 ([1]; A549, read-out: LC50): 46.2 µM
- GI50 ([1]; ACHN): 1.71 µM
- CC50 ([1]; ACHN, read-out: LC50): 6.19 µM
- GI50 ([1]; BT-549): 1.38 µM
- CC50 ([1]; BT-549, read-out: LC50): 32.6 µM
- GI50 ([1]; CAKI-1): 2.32 µM
- CC50 ([1]; CAKI-1, read-out: LC50): 19.2 µM
- GI50 ([1]; CCRF-CEM): 1.6 µM
- CC50 ([1]; CCRF-CEM, read-out: LC50): > 100 µM
- GI50 ([1]; COLO 205): 2.45 µM
- CC50 ([1]; COLO 205, read-out: LC50): 50.8 µM
- GI50 ([1]; DU-145): 1.7 µM
- CC50 ([1]; DU-145, read-out: LC50): 7.68 µM
- GI50 ([1]; EKVX): 2.75 µM
- CC50 ([1]; EKVX, read-out: LC50): 63.8 µM
- GI50 ([1]; HCC 2998): 1.97 µM
- CC50 ([1]; HCC 2998, read-out: LC50): 6.42 µM
- GI50 ([1]; HCT-15): 1.6 µM
- CC50 ([1]; HCT-15, read-out: LC50): 30.6 µM
- GI50 ([1]; HCT-116): 1.51 µM
- CC50 ([1]; HCT-116, read-out: LC50): 6.01 µM
- GI50 ([1]; HL-60): 2.02 µM
- CC50 ([1]; HL-60, read-out: LC50): > 100 µM
- GI50 ([1]; HOP-62): 2.47 µM
- CC50 ([1]; HOP-62, read-out: LC50): > 100 µM
- GI50 ([1]; HOP-92): 2.84 µM
- CC50 ([1]; HOP-92, read-out: LC50): 27.4 µM
- GI50 ([1]; HT-29): 2.13 µM
- GI50 ([1]; Hs-578T): 2.16 µM
- CC50 ([1]; Hs-578T, read-out: LC50): > 100 µM
- GI50 ([1]; IGROV-1): 2.78 µM
- CC50 ([1]; IGROV-1, read-out: LC50): > 100 µM
- GI50 ([1]; K562): 2.45 µM
- CC50 ([1]; K562, read-out: LC50): > 100 µM
- GI50 ([1]; KM12): 1.68 µM
- CC50 ([1]; KM12, read-out: LC50): 5.77 µM
- GI50 ([1]; LOX IMVI): 1.33 µM
- CC50 ([1]; LOX IMVI, read-out: LC50): 5.78 µM
- GI50 ([1]; M14): 1.84 µM
- CC50 ([1]; M14, read-out: LC50): 9.9 µM
- GI50 ([1]; MCF7): 1.8 µM
- CC50 ([1]; MCF7, read-out: LC50): > 100 µM
- GI50 ([1]; MDA-MB-231): 1.99 µM
- CC50 ([1]; MDA-MB-231, read-out: LC50): 12.8 µM
- GI50 ([1]; MDA-MB-435): 2.25 µM
- CC50 ([1]; MDA-MB-435, read-out: LC50): 29.7 µM
- GI50 ([1]; MDA-MB-468): 1.72 µM
- CC50 ([1]; MDA-MB-468, read-out: LC50): 6.66 µM
- GI50 ([1]; MOLT-4): 1.87 µM
- CC50 ([1]; MOLT-4, read-out: LC50): > 100 µM
- GI50 ([1]; Malme-3M): 2.19 µM
- CC50 ([1]; Malme-3M, read-out: LC50): 21.9 µM
- GI50 ([1]; NCI-H23): 2.03 µM
- CC50 ([1]; NCI-H23, read-out: LC50): 23.7 µM
- GI50 ([1]; NCI-H226): 2.4 µM
- CC50 ([1]; NCI-H226, read-out: LC50): > 100 µM
- GI50 ([1]; NCI-H322M): 2.88 µM
- CC50 ([1]; NCI-H322M, read-out: LC50): 35.2 µM
- GI50 ([1]; NCI-H460): 1.95 µM
- CC50 ([1]; NCI-H460, read-out: LC50): 8.37 µM
- GI50 ([1]; NCI-H522): 1.9 µM
- CC50 ([1]; NCI-H522, read-out: LC50): 14.3 µM
- GI50 ([1]; NCI/ADR-RES): 3.39 µM
- CC50 ([1]; NCI/ADR-RES, read-out: LC50): > 100 µM
- GI50 ([1]; OVCAR-3): 1.28 µM
- CC50 ([1]; OVCAR-3, read-out: LC50): 5.37 µM
- GI50 ([1]; OVCAR-4): 3.13 µM
- CC50 ([1]; OVCAR-4, read-out: LC50): 56.8 µM
- GI50 ([1]; OVCAR-5): 2.68 µM
- CC50 ([1]; OVCAR-5, read-out: LC50): 34 µM
- GI50 ([1]; OVCAR-8): 3.43 µM
- CC50 ([1]; OVCAR-8, read-out: LC50): 93.7 µM
- GI50 ([1]; RXF 393): 0.798 µM
- CC50 ([1]; RXF 393, read-out: LC50): 5.81 µM
- GI50 ([1]; SF-268): 1.66 µM
- CC50 ([1]; SF-268, read-out: LC50): 6.62 µM
- GI50 ([1]; SK-MEL-2): 2.51 µM
- CC50 ([1]; SK-MEL-2, read-out: LC50): 22.2 µM
- GI50 ([1]; SK-MEL-5): 1.82 µM
- CC50 ([1]; SK-MEL-5, read-out: LC50): 6.4 µM
- GI50 ([1]; SK-MEL-28): 1.68 µM
- CC50 ([1]; SK-MEL-28, read-out: LC50): 9.49 µM
- GI50 ([1]; SK-OV-3): 5.16 µM
- CC50 ([1]; SK-OV-3, read-out: LC50): 51.2 µM
- GI50 ([1]; SN12C): 1.65 µM
- CC50 ([1]; SN12C, read-out: LC50): 6.53 µM
- GI50 ([1]; SNB-19): 1.86 µM
- CC50 ([1]; SNB-19, read-out: LC50): 7.65 µM
- GI50 ([1]; SNB-75): 1.49 µM
- CC50 ([1]; SNB-75, read-out: LC50): 6.24 µM
- GI50 ([1]; SW-620): 2.27 µM
- CC50 ([1]; SW-620, read-out: LC50): 23.2 µM
- GI50 ([1]; T47D): 2.41 µM
- CC50 ([1]; T47D, read-out: LC50): > 100 µM
- GI50 ([1]; TK-10): 2.91 µM
- CC50 ([1]; TK-10, read-out: LC50): 23 µM
- GI50 ([1]; U-251): 1.36 µM
- CC50 ([1]; U-251, read-out: LC50): 5.7 µM
- GI50 ([1]; UACC-62): 1.83 µM
- CC50 ([1]; UACC-62, read-out: LC50): 8.55 µM
- GI50 ([1]; UACC-257): 2.54 µM
- CC50 ([1]; UACC-257, read-out: LC50): 30.5 µM
- GI50 ([1]; UO-31): 1.67 µM
- CC50 ([1]; UO-31, read-out: LC50): 5.56 µM
- IC50 (SK-MEL-25; Homo sapiens, SK-MEL-25 melanoma cells (head prints SK-25), read-out: SK-25 IC50): > 20 µM
- SK-MEL-25 (% viability) (SK-MEL-25; human, 24 h): 13.15%
- SK-MEL-28 (% viability) (SK-MEL-28; human, 24 h): 13.79%
- LOX-IMVI (% viability) (LOX IMVI; human, 24 h): 27%
- SK-MEL-5 (% viability) (SK-MEL-5; human, 24 h): 14.72%
- MALME-3M (% viability) (MALME-3M): 68.28%
- Growth Percent (HCT-15 (Colon Cancer)): −30.18%
- GI50 (gliosarcoma (SF-539); Homo sapiens, SF-539): 1.19 µM
- CC50 (gliosarcoma (SF-539); Homo sapiens, SF-539, read-out: LC50): 5.74 µM
- TGI (gliosarcoma (SF-539); SF-539 (CNS Cancer), five dose): 2.62E−6

From patent US20250296953A1, “3,4-THIAZOLO-STEROIDS AND METHODS OF MAKING AND USING THE SAME” (Arkansas State University - Jonesboro, priority 2018, published 2025)
